Measured values reported in US20240316059A1, “PEPTIDE DRUG CONJUGATES” (Oncopeptides AB, priority 2021, published 2024).
Where two headings read alike, the source gives them in different places.

What was measured:
MM.1S cells = experiment: In vitro cytotoxic potency in MM.1S cell viability assay (CellTiter-Glo); format: cell-based, human; details: Homo sapiens, MM1.S, 72 h
In short: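 Log-phase MM.1S cells in supplemented RPMI 1640 were seeded at 100000 cells/mL with compound (0.2% DMSO final). After 72 h at 37 °C in CO2, viability was measured by CellTiter-Glo 2.0 luminescence.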

RPMI-8226 = experiment: In vitro cytotoxicity, RPMI-8226 (Multiple Myeloma, resistant); format: cell-based; details: Homo sapiens, RPMI-8226, 72 h, read-out: Cytotoxicity IC50, RPMI-8226
In short: (§1)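 CellTiter-Glo 2.0 luminescence after 72 h compound exposure, 37 °C, CO2. Cells at 100000 cells/mL, log phase, RPMI 1640 + 10% FBS; DERL-2: 20% FBS, 40 ng/mL IL-2. Final DMSO 0.2%.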

SK-MM-1 = experiment: In vitro cytotoxicity, SK-MM-1 (Plasma Cell Leukemia); format: cell-based; details: Homo sapiens, 72 h, read-out: Cytotoxicity IC50, SK-MM-1
Method: (§2) All cells were cultivated in RPMI medium 1640 (IX). All media was supplemented with 10 μg/μl penicillin/streptomycin, 10% heat inactivated FBS, 0.1 mM Sodium Pyruvate, 1×MEM NEAA (ThermoFisher) and 1 mM HEPES. The DERL-2 cells had higher FBS (20%) and 40 ng/mL IL-2 was added. hPBMCs were thawed and allowed to acclimatise overnight and then stimulated with 10 μg/mL PHA-M and 40 ng/mL IL-2 for 4 hours before being exposed to test compounds. All cells, except for hPBMCs, were grown to reach log phase before being exposed to the test compounds.
(§3) Test compounds were dissolved in 100% DMSO and added to a 384 assay plate. Additional DMSO was added to maintain the same final DMSO concentration (0.2%) in all wells. 25 μL cell suspension with a concentration of 100000 cells/mL was added to each well. The cells were cultured in a CO2 incubator at 37° C. for 72 h. Plates were equilibrated to room temperature for 30 minutes before adding 20 μL CellTiter-Glo® 2.0 (Promega) reagent to all wells. The plate was then allowed to stabilize for 20 minutes before recording the luminescence (Em filter 700 nm) in an Envision plate reader.

SC-1 = experiment: In vitro cytotoxicity, SC-1 (B cell Lymphoma); format: cell-based; details: Homo sapiens, SC-1, 72 h, read-out: Cytotoxicity IC50, SC-1
In short: as §1

SU-DHL-8 = experiment: In vitro cytotoxicity, SU-DHL-8 (B-cell non-Hodgkin Lymphoma); format: cell-based; details: Homo sapiens, SU-DHL-8, 72 h, read-out: Cytotoxicity IC50, SU-DHL-8
Method: as §2, §3

Toledo = experiment: In vitro cytotoxicity, Toledo (Diffuse Large B Cell Lymphoma); format: cell-based; details: Homo sapiens, 72 h, read-out: Cytotoxicity IC50, Toledo
Method: as §2, §3

DERL-2 = experiment: In vitro cytotoxicity, DERL-2 (T cell Lymphoma); format: cell-based; details: Homo sapiens, 72 h, read-out: Cytotoxicity IC50, DERL-2
Method: as §2, §3

[1] = In vitro cytotoxicity, BJ fibroblasts (normal cells); format: cell-based; details: human, CellTiter-Glo 2.0
Method: as §2, §3

[2] = In vitro cytotoxicity, human peripheral blood mononuclear cells; format: cell-based; details: CellTiter-Glo 2.0, stimulated with PHA-M and IL-2, read-out: Cytotoxicity IC50, hPBMC
Method: as §2, §3

[3] = tested on: SU-DHL-4 human lymphoma cell line; experiment: In ovo chicken embryo xenograft model, tumour weight; format: in vivo; details: 100 μL injected day 11, 13, 15, 17, tumours weighed day 18
Method: Methods: Inoculation of Fertilized White Leghorn eggs was performed with 3×10^6 SU-DHL-4 tumour cells on day 9 (post-fertilisation). Viable eggs were injected with 100 μL of either Example compound 1 (8.4 uM (0.008 mg/kg), 33.5 uM (0.033 mg/kg), 167.5 uM (0.164 mg/kg)), bendamustine (8.4 uM (0.005 mg/kg), 33.5 uM (0.02 mg/kg), 167.5 uM (0.1 mg/kg)) or vehicle on day 11, 13, 15 and 17. On day 18, tumours were removed and weighed.

[4] = read-out: Cytotoxicity IC50, MM.1S

Compound: Cn1c(CCCC(=O)O)nc2cc(N(CCCl)CCCl)ccc21 [Bendamustine, bendamustine, reference compound]
- IC50 (MM.1S cells; [4]): 24000 nM
- IC50 (MM.1S cells; read-out: MM.1S IC50): 24000 nM
- IC50 (RPMI-8226): 111000 nM
- IC50 (SK-MM-1): 73500 nM
- IC50 (SC-1): 25100 nM
- IC50 (SU-DHL-8): 14300 nM
- IC50 (Toledo): 12500 nM
- IC50 (DERL-2): 21100 nM
- IC50 at 72 h [1]: > 599000 nM
- IC50 at 72 h [2]: 15800 nM
- Tumour reduction compared to vehicle ([3]; 33.5 μM): 30%
- Tumour reduction compared to vehicle ([3]; 167.5 μM): 76%

Compound: CCOC(=O)[C@H](CC(C)C)NC(=O)[C@@H](N)CCc1nc2cc(N(CCCl)CCCl)ccc2n1C [Example 1, Ethyl (2S)-2-[[(2S)-2-amino-4-[5-[bis(2-chloroethyl)amino]-1-methyl-benzimidazol-2-yl]butanoyl]amino]-4-methyl-pentanoate]
- IC50 (MM.1S cells; [4]): 6.8 nM
- IC50 (MM.1S cells; read-out: MM.1S IC50): 6.8 nM
- IC50 (RPMI-8226): 90.6 nM
- IC50 (SK-MM-1): 34.7 nM
- IC50 (SC-1): 13.3 nM
- IC50 (SU-DHL-8): 19.9 nM
- IC50 (Toledo): 4.5 nM
- IC50 (DERL-2): 6 nM
- IC50 at 72 h [1]: 1070 nM
- IC50 at 72 h [2]: 5.4 nM
- Tumour reduction compared to vehicle ([3]; 8.4 μM): 38%
- Tumour reduction compared to vehicle ([3]; 33.5 μM): 70%
- Tumour reduction compared to vehicle ([3]; 167.5 μM): 82%
